Results on 1 molecule are retold here after patent publication US5254727A, “Acyclic tricarboxylic acid compounds” (Merck & Co., Inc., priority 1992, dated 1993).

Experiment [1] has as its target T1, squalene synthetase from human HEPG2 cells (Homo sapiens, UniProt P37268).
T1 construct: The resulting pellet from the 34,000 rpm centrifugation, containing the squalene synthetase, was resuspended in 5 mL of enzyme suspension buffer; endogenous in cells; host or cells: HepG2 cells (ATCC HB 8065), pellet of the 34,000 rpm centrifugation (microsomal)
T1 sequence (P37268 1-417): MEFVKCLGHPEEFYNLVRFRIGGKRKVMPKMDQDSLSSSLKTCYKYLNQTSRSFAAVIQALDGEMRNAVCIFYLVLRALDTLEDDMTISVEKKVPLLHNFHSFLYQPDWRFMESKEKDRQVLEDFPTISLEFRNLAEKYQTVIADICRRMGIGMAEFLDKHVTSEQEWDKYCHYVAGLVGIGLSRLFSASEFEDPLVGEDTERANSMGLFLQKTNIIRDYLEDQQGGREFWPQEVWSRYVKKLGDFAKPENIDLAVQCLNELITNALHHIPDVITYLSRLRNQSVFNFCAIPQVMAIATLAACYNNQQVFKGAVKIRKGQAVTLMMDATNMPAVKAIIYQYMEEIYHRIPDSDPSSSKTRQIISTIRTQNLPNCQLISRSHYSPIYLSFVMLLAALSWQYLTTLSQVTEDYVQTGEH
As to the kind of experiment: Squalene synthetase assay using HepG2 cell enzyme. It counts as biochemical. Conditions: 3 μM 3H-farnesyl pyrophosphate, 30° C., 20 min. Here is the method: A. SQUALENE SYNTHETASE ASSAY USING HEPG2 CELL ENZYME
1. Preparation of Human HepG2 Cell Enzyme
Source: HEPG2 CELL LINE (Liver, hepatoblastoma, Human) ATCC No. HB 8065
Cell Growth and Maintenance: Culture Medium: Minimum essential medium (MEM) with non-essential amino acids, sodium pyruvate, and 10% fetal bovine serum. The medium was changed twice weekly. A confluent monolayer was acheived in 1 week. The growth medium was prepared as listed below.
Subculture Procedure: The medium was removed and washed with PBS (Phosphate-Buffered Saline 15.6 mM, pH 7.0). Fresh trypsin (0.25%)-EDTA (0.02%) with Hank's Balanced Salt solution was added and the flask was allowed to stand for a minute before the trypsin solution was removed. The flask was incubated at 37° C. until cells detached. Fresh medium was added and the cells were dispersed and dispensed into new flasks. Subcultivation ratio: 1:6.
Preparation of Delipidated Serum: Fetal calf serum (100 ml) and CAB-O-Sil (2 grams) were stirred overnight at 4° C. and centrifuged at 16,000 rpm for 5 hrs. […]
Harvest: The medium was removed and the cells were washed with PBS. […] Cells were counted (2.5×10^9 yield from 18 flasks (75 cm^2)), and resuspended in 10 mL of 50 mM HEPES (N-[2-Hydroxyethyl]piperazine-N'-[2-ethane-sulfonic acid]) containing 5 mM MgCl2, 2 mM MnCl2, 10 mM DTT (dithiothreitol), pH 7.5 (enzyme suspension buffer). […]

Experiment [2] addresses T2, squalene synthetase, rat liver microsomes (Rattus norvegicus, UniProt Q02769).
T2 construct: from tissue; host or cells: liver microsomes of male Charles River CD rats fed 0.1% lovastatin
T2 sequence (Q02769 1-416): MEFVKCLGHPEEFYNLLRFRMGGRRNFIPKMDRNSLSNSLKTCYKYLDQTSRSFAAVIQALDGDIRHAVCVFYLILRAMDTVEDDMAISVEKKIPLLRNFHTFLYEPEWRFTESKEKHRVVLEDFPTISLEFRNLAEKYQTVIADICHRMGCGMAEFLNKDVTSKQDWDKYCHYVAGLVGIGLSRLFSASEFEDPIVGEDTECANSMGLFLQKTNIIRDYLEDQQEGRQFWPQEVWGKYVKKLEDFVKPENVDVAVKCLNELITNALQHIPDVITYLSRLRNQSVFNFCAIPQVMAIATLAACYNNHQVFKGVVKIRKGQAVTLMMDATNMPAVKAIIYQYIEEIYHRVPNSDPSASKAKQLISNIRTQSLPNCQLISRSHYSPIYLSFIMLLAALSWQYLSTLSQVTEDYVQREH
In words: Squalene synthetase assay using rat liver enzyme. It counts as biochemical. Conditions: rat liver microsomal enzyme, [4-14C]farnesyl pyrophosphate, 30° C., 20 min. Here is the method:
B. SQUALENE SYNTHETASE ASSAY USING RAT LIVER ENZYME
Preparation of Rat Liver Microsomes: Male, Charles River CD rats (120 to 150 g) were fed a diet containing 0.1% lovastatin for 4 days. The livers from these rats were homogenized in 5 volumes (ml/g) of ice cold 50 mM HEPES (4-(2-hydroxyethyl)-1-piperazine-ethanesulfonic acid), 5 mM EDTA(ethylenediaminetetra-acetic acid) pH 7.5 with a Potter-Elvehjem type tissue grinder. The homogenate was centrifuged twice at 20,000×g for 15 minutes at 4° C., discarding the pellet each time. The supernatant was then centrifuged at 100,000×g for 1 hour at 4° C. The resulting microsomal pellet was resuspended in a volume of the above homogenizing buffer equal to one-fifth the volume of the original homogenate. This microsomal preparation has a protein concentration of about 7 mg/ml. The microsomal suspensions were stored in aliquots at -70° C. Squalene synthetase activity in these aliquots is stable for at least several months.
Partial Purification of Prenyl Transferase: Prenyl transferase was purified to use in the enzymatic synthesis of radiolabelled farnesyl pyrophosphate [FPP]. Prenyl transferase was assayed by the method of Rilling (Methods in Enzymology 110, 125-129 (1985)) and a unit of activity is defined as the amount of enzyme that will produce 1 μmole of farnesyl pyrophosphate per minute at 30° C. in the standard assay. […]
(In general: Microsomes from liver hold many membrane-bound enzymes, among them those of drug oxidation.)

Broadly, the IC50 is the concentration needed to halve the response being measured. A higher IC50 goes with a need for much substance. For the molecule `CC(C/C=C/c1ccccc1)CC(C)CCCCCC(C(=O)O)C(O)(CC(=O)O)C(=O)O` (centres unmarked) [Compound IA], the concentration for half-maximal inhibition (IC50) in experiment [1] was around 145 nM; in experiment [2], 767 nM.
